{"source": "patent US20010001713A1", "about": "“Composition and method for measuring the foliar uptake of agrochemicals” (priority 1999, published 2001)", "key": {"[1]": {"tested_on": "cucumber leaves", "details": "Baktadagi, in vivo, 0 h", "experimental": "(§1) (Step 1) Preparation of a solution containing agrochemicals and Congo Red\n(§2) Since dimethomorph is not readily absorbed by the plant, 0.1% of stearylamine ethoxylate(SN, moles of ethylene oxide added: 10) was added as an adjuvant to enhance its foliar uptake.\n(§3) Cucumber seeds(Baktadagi, Hung Nong Seed Co., Ltd., Korea) were sowed in disposable resin cup pots (id 47 mm×50 mm) at a density of three seeds per pot and cultivated in a greenhouse. Upon the complete development of cotyledons, the cucumber plants were each transplanted to a disposable resin cup pot(id 66 mm×h 66 mm) and cultivated in a greenhouse until the development of 4 to 5 leaves.\n(§4) 18 pots of cucumber plants thus prepared were put in a spray booth and sprayed with the agrochemical solution prepared in (Step 1) in an amount of 80 l/ha. Further, 15 glass plates(10 cm×10 cm) were also sprayed with the same agrochemical solution prepared in (Step 1) in an amount of 80 l /ha.\n(§5) Immediately after the spraying in (Step 2) , one leaf with its petiole attached was cut off from each of three cucumber plants, put in a test tube containing the appropriate washing solution and washed by agitating the tube with bottom-side up at 60 to 70 rpm for 2 minutes to obtain three wash extracts. Three glass plates were subjected to the same washing procedure in a petri dish(id 15.2 cm) to obtain three control wash extracts.\n(§6) The remaining 15 cucumber plants and 12 glass plates were stored in the dark at room temperature, and the same washing procedure as above was repeated at 1 hour, 3 hours, 6 hours, 12 hours and 24 hours after the spraying.\n(§7) The concentrations of the agrochemicals in the wash extracts were measured by HPLC(Spectra 200 Programmable Wavelength Detector, acetonitrile-water solvent programming, 42%-80%). The wash extracts obtained immediately after the spraying were used as standard solutions, and Congo Red, as an internal standard."}, "[2]": {"assay": "Glass plate control run of Example 3 (loss of dimethomorph other than by plant uptake)", "details": "24 hours after spraying, stored in the dark at room temperature", "text": "The use of a control plate serves the purpose of determining the loss of agrochemical due to reasons other than plant uptake.\n(§8) Forum wettable powder(a 25% dimethomorph formulation, Dongbang Agro Co., Ltd., Korea) was dispersed in water and added thereto were one of the penetrant candidate materials listed in Table 4 and Congo Red to obtain an agrochemical solution containing dimethomorph, a penetrant candidate and Congo Red at concentrations of 250 ppm, 1,000 ppm and 200 ppm, respectively. A control containing no penetrant was also prepared.\nThe agrochemical solution and control thus prepared were sprayed on leaves of each of six cucumber plants having 4 to 5 leaves, as well as on six glass plates(10 cm×10 cm). Immediately after the spraying, the sprayed cucumber leaves from 3 cucumber plants and three glass plates were washed with 12 ml portion of 30% acetonitrile-aqueous solution for 3 minutes to obtain standard wash extracts and controls. […]\nThe concentrations of dimethomorph and Congo Red in the wash extracts were measured by HPLC(Spectra 200 Programmable Wavelength Detector, acetonitrile-water solvent programming, 42%-80%) . […] The foliar uptake rate of dimethomorph was calculated by comparing the concentrations of dimethomorph and Congo Red in the wash extracts obtained immediately after the spraying and at 24 hours after the spraying."}, "[3]": {"tested_on": "rice plants", "details": "in vivo; for Time-dependent Uptake by Rice(%) (Mean ± S.D.(n = 3)) I.A. / Time-dependent Uptake by Rice(%) (Mean ± S.D.(n = 3)) after 1 hr / Time-dependent Uptake by Rice(%) (Mean ± S.D.(n = 3)) after 3 hrs / Time-dependent Uptake by Rice(%) (Mean ± S.D.(n = 3)) after 6 hrs / Time-dependent Uptake by Rice(%) (Mean ± S.D.(n = 3)) after 12 hrs / Time-dependent Uptake by Rice(%) (Mean ± S.D.(n = 3)) after 24 hrs: Dongjin byeo"}, "[4]": {"tested_on": "cucumber leaves", "assay": "Foliar uptake of agrochemicals by cucumber plants (Congo Red tracer method)", "details": "for Time-dependent Uptake by Cucumber(%) (Mean ± S.D.(n = 3)) after 24 hrs: 24 hrs after spraying", "experimental": "as §1, §2, §3, §4, §5, §6, §7"}, "[5]": {"tested_on": "rice plants", "details": "in vivo"}, "[6]": {"tested_on": "cucumber leaves", "assay": "Selection of a penetrant for the absorption of dimethomorph by cucumber leaves", "details": "24 hours after spraying, dimethomorph 250 ppm (Forum wettable powder) + penetrant 1,000 ppm", "experimental": "as §8\nThe agrochemical solution and control thus prepared were sprayed on leaves of each of six cucumber plants having 4 to 5 leaves, as well as on six glass plates(10 cm×10 cm). Immediately after the spraying, the sprayed cucumber leaves from 3 cucumber plants and three glass plates were washed with 12 ml portion of 30% acetonitrile-aqueous solution for 3 minutes to obtain standard wash extracts and controls.\nThe remaining three cucumber pots and three glass plates were stored in the dark at room temperature, and the same procedure was repeated at 24 hours after the spraying.\nThe concentrations of dimethomorph and Congo Red in the wash extracts were measured by HPLC(Spectra 200 Programmable Wavelength Detector, acetonitrile-water solvent programming, 42%-80%) . The wash extracts obtained immediately after the spraying were used as standard solutions, and Congo Red, as an internal standard. The foliar uptake rate of dimethomorph was calculated by comparing the concentrations of dimethomorph and Congo Red in the wash extracts obtained immediately after the spraying and at 24 hours after the spraying."}}, "note": "Where two headings read alike, the source gives them in different places."}
{"molecule": "COc1ccc(C(=CC(=O)N2CCOCC2)c2ccc(Cl)cc2)cc1OC", "note": "[Dimethomorph, dimethomorph]", "values": [{"measurement": "Time-dependent Uptake by Cucumber(%) (Mean ± S.D.(n = 3)) I.A.", "setting": "[1]", "value": "0 ± 0.7", "unit": "%"}, {"measurement": "Uptake (%) of dimethomorph", "setting": "[2]", "value": 0.0, "unit": "%"}]}
{"molecule": "CCOP(=O)(Sc1ccccc1)Sc1ccccc1", "note": "[Edifenphos, edifenphos]", "values": [{"measurement": "Time-dependent Uptake by Rice(%) (Mean ± S.D.(n = 3)) I.A.", "setting": "[3]", "value": "0 ± 1.3", "unit": "%"}, {"measurement": "Time-dependent Uptake by Rice(%) (Mean ± S.D.(n = 3)) after 1 hr", "setting": "[3]", "value": "1.5 ± 1.1", "unit": "%"}, {"measurement": "Time-dependent Uptake by Rice(%) (Mean ± S.D.(n = 3)) after 3 hrs", "setting": "[3]", "value": "4.9 ± 0.7", "unit": "%"}, {"measurement": "Time-dependent Uptake by Rice(%) (Mean ± S.D.(n = 3)) after 6 hrs", "setting": "[3]", "value": "7.8 ± 0.4", "unit": "%"}, {"measurement": "Time-dependent Uptake by Rice(%) (Mean ± S.D.(n = 3)) after 12 hrs", "setting": "[3]", "value": "14.5 ± 1.3", "unit": "%"}, {"measurement": "Time-dependent Uptake by Rice(%) (Mean ± S.D.(n = 3)) after 24 hrs", "setting": "[3]", "value": "29.8 ± 1.9", "unit": "%"}, {"measurement": "absorption by the rice plants (in words)", "setting": "[3]", "value": "absorbed by the rice plants at a steady rate"}]}
{"molecule": "OC(c1ccc(Cl)cc1)(c1cncnc1)c1ccccc1Cl", "note": "(stereo not shown) [Fenarimol, fenarimol]", "values": [{"measurement": "Time-dependent Uptake by Cucumber(%) (Mean ± S.D.(n = 3)) after 1 hr", "setting": "[4]; 1 hr after spraying, stored in the dark, dimethomorph with 0.1% stearylamine ethoxylate", "value": "2.0 ± 8.1", "unit": "%"}, {"measurement": "Time-dependent Uptake by Cucumber(%) (Mean ± S.D.(n = 3)) after 3 hrs", "setting": "[4]; 3 hrs after spraying, stored in the dark, dimethomorph with 0.1% stearylamine ethoxylate", "value": "3.2 ± 1.8", "unit": "%"}, {"measurement": "Time-dependent Uptake by Cucumber(%) (Mean ± S.D.(n = 3)) after 6 hrs", "setting": "[4]; 6 hrs after spraying, stored in the dark, dimethomorph with 0.1% stearylamine ethoxylate", "value": "5.2 ± 2.5", "unit": "%"}, {"measurement": "Time-dependent Uptake by Cucumber(%) (Mean ± S.D.(n = 3)) after 12 hrs", "setting": "[4]; 12 hrs after spraying, stored in the dark, dimethomorph with 0.1% stearylamine ethoxylate", "value": "8.0 ± 4.1", "unit": "%"}, {"measurement": "Time-dependent Uptake by Cucumber(%) (Mean ± S.D.(n = 3)) after 24 hrs", "setting": "[4]; stored in the dark, dimethomorph with 0.1% stearylamine ethoxylate", "value": "15.1 ± 4.0", "unit": "%"}, {"measurement": "Time-dependent Uptake by Cucumber(%) (Mean ± S.D.(n = 3)) after 24 hrs", "setting": "[4]; stored in the dark, dimethomorph with 0.1% stearylamine ethoxylate, listed as fenarimol", "value": 15.1, "unit": "%"}, {"measurement": "Time-dependent Uptake by Cucumber(%) (Mean ± S.D.(n = 3)) I.A.", "setting": "[4]; immediately after the spraying, 80 l/ha, dimethomorph solution with 0.1% stearylamine ethoxylate", "value": "0 ± 3.1", "unit": "%"}]}
{"molecule": "CC(C)OC(=O)C(C(=O)OC(C)C)=C1SCCS1", "note": "[Isoprothiolane, isoprothiolane]", "values": [{"measurement": "Time-dependent Uptake by Rice(%) (Mean ± S.D.(n = 3)) I.A.", "setting": "[3]", "value": "0 ± 1.0", "unit": "%"}, {"measurement": "Time-dependent Uptake by Rice(%) (Mean ± S.D.(n = 3)) after 1 hr", "setting": "[3]", "value": "7.9 ± 1.9", "unit": "%"}, {"measurement": "Time-dependent Uptake by Rice(%) (Mean ± S.D.(n = 3)) after 3 hrs", "setting": "[3]", "value": "11.6 ± 1.2", "unit": "%"}, {"measurement": "Time-dependent Uptake by Rice(%) (Mean ± S.D.(n = 3)) after 6 hrs", "setting": "[3]", "value": "16.1 ± 1.3", "unit": "%"}, {"measurement": "Time-dependent Uptake by Rice(%) (Mean ± S.D.(n = 3)) after 12 hrs", "setting": "[3]", "value": "27.8 ± 1.1", "unit": "%"}, {"measurement": "Time-dependent Uptake by Rice(%) (Mean ± S.D.(n = 3)) after 24 hrs", "setting": "[3]", "value": "47.1 ± 2.5", "unit": "%"}, {"measurement": "absorption by the rice plants (in words)", "setting": "[3]", "value": "absorbed by the rice plants at a steady rate"}]}
{"molecule": "CC12CC1(C)C(=O)N(c1cc(Cl)cc(Cl)c1)C2=O", "note": "(stereo not shown) [Procymidone, procymidone]", "values": [{"measurement": "Time-dependent Uptake by Cucumber(%) (Mean ± S.D.(n = 3)) I.A.", "setting": "[1]", "value": "0 ± 0.8", "unit": "%"}]}
{"molecule": "Cc1cccc2sc3nncn3c12", "note": "[Tricyclazole, tricyclazole]", "values": [{"measurement": "Time-dependent Uptake by Rice(%) (Mean ± S.D.(n = 3)) I.A.", "setting": "[3]", "value": "0 ± 1.1", "unit": "%"}, {"measurement": "Time-dependent Uptake by Rice(%) (Mean ± S.D.(n = 3)) after 1 hr", "setting": "[3]", "value": "1.4 ± 0.7", "unit": "%"}, {"measurement": "Time-dependent Uptake by Rice(%) (Mean ± S.D.(n = 3)) after 3 hrs", "setting": "[3]", "value": "1.1 ± 1.5", "unit": "%"}, {"measurement": "Time-dependent Uptake by Rice(%) (Mean ± S.D.(n = 3)) after 6 hrs", "setting": "[3]", "value": "2.0 ± 1.4", "unit": "%"}, {"measurement": "Time-dependent Uptake by Rice(%) (Mean ± S.D.(n = 3)) after 12 hrs", "setting": "[3]", "value": "4.1 ± 0.5", "unit": "%"}, {"measurement": "Time-dependent Uptake by Rice(%) (Mean ± S.D.(n = 3)) after 24 hrs", "setting": "[3]", "value": "11.0 ± 0.9", "unit": "%"}, {"measurement": "absorption by the rice plants (in words)", "setting": "[3]", "value": "absorbed by the rice plants at a steady rate"}, {"measurement": "Recovery (%) of tricyclazole", "setting": "[5]; rice", "value": 82.4, "unit": "%"}, {"measurement": "Uptake (%) of tricyclazole", "setting": "[5]; rice", "value": 17.6, "unit": "%"}]}
{"molecule": "CCCCC(CC)COC(=O)CC(C(=O)OCC(CC)CCCC)S(=O)(=O)[O-].[Na+]", "note": "(stereo not shown) [sodium dioctylsulfosuccinate]", "values": [{"measurement": "Recovery (%) of dimethomorph", "setting": "[6]", "value": 94.5, "unit": "%"}, {"measurement": "Uptake (%) of dimethomorph", "setting": "[6]", "value": 5.5, "unit": "%"}, {"measurement": "Recovery (%) of tricyclazole", "setting": "[5]", "value": 79.1, "unit": "%"}, {"measurement": "Uptake (%) of tricyclazole", "setting": "[5]", "value": 20.9, "unit": "%"}]}
{"molecule": "castor oil ethoxylate [castor oil ethoxylate(17)]", "values": [{"measurement": "Recovery (%) of tricyclazole", "setting": "[5]", "value": 63.7, "unit": "%"}, {"measurement": "Uptake (%) of tricyclazole", "setting": "[5]", "value": 36.3, "unit": "%"}]}
{"molecule": "laurylamine ethoxylate [laurylamine ethoxylate(7)]", "values": [{"measurement": "Recovery (%) of dimethomorph", "setting": "[6]", "value": 96.3, "unit": "%"}, {"measurement": "Uptake (%) of dimethomorph", "setting": "[6]", "value": 3.7, "unit": "%"}, {"measurement": "Recovery (%) of tricyclazole", "setting": "[5]", "value": 35.4, "unit": "%"}, {"measurement": "Uptake (%) of tricyclazole", "setting": "[5]", "value": 64.6, "unit": "%"}]}
{"molecule": "nonylphenol ethoxylate [nonylphenol ethoxylate(10)]", "values": [{"measurement": "Recovery (%) of dimethomorph", "setting": "[6]", "value": 99.8, "unit": "%"}, {"measurement": "Uptake (%) of dimethomorph", "setting": "[6]", "value": 0.2, "unit": "%"}, {"measurement": "Recovery (%) of tricyclazole", "setting": "[5]", "value": 80.6, "unit": "%"}, {"measurement": "Uptake (%) of tricyclazole", "setting": "[5]", "value": 19.4, "unit": "%"}]}
{"molecule": "stearylamine ethoxylate [stearylamine ethoxylate(10)]", "values": [{"measurement": "Recovery (%) of dimethomorph", "setting": "[6]", "value": 85.5, "unit": "%"}, {"measurement": "Uptake (%) of dimethomorph", "setting": "[6]", "value": 14.5, "unit": "%"}, {"measurement": "Recovery (%) of tricyclazole", "setting": "[5]", "value": 46.1, "unit": "%"}, {"measurement": "Uptake (%) of tricyclazole", "setting": "[5]", "value": 53.9, "unit": "%"}]}
{"molecule": "tridecyl alcohol ethoxylate [tridecyl alcohol ethoxylate(5)]", "values": [{"measurement": "Recovery (%) of dimethomorph", "setting": "[6]", "value": 98.0, "unit": "%"}, {"measurement": "Uptake (%) of dimethomorph", "setting": "[6]", "value": 2.0, "unit": "%"}, {"measurement": "Recovery (%) of tricyclazole", "setting": "[5]", "value": 75.6, "unit": "%"}, {"measurement": "Uptake (%) of tricyclazole", "setting": "[5]", "value": 24.4, "unit": "%"}]}
